According to ChEMBL document CHEMBL2413072, “Synthesis and in vitro anticancer studies of novel C-2 arylidene congeners of lantadenes” (2013):
Activity calls are given as the source filed them. The calls are words filed in the database; no cut-off is given here.

Key:
Format in all cases: functional
[1] = Growth inhibition of human Hs 578T cells assessed as growth inhibition at 10 uM by sulforhodamine B assay; settings: read-out: GI
[2] = test system: UO-31; test: Growth inhibition of human UO31 cells assessed as growth inhibition at 10 uM by sulforhodamine B assay
[3] = test system: SN12C; test: Growth inhibition of human SN12C cells assessed as growth inhibition at 10 uM by sulforhodamine B assay; settings: read-out: GI
[4] = test system: RXF 393; test: Growth inhibition of human RXF393 cells assessed as growth inhibition at 10 uM by sulforhodamine B assay; settings: read-out: GI
[5] = test system: ACHN; test: Growth inhibition of human ACHN cells assessed as growth inhibition at 10 uM by sulforhodamine B assay; settings: read-out: GI
[6] = test system: OVCAR-8; test: Growth inhibition of human OVCAR8 cells assessed as growth inhibition at 10 uM by sulforhodamine B assay; settings: read-out: GI
[7] = test system: CCRF-CEM; test: Growth inhibition of human CCRF-CEM cells assessed as cell growth at 10 uM by sulforhodamine B assay; settings: read-out: Activity
[8] = test system: M14; test: Growth inhibition of human M14 cells assessed as growth inhibition at 10 uM by sulforhodamine B assay; settings: read-out: GI
[9] = test system: LOX IMVI; test: Growth inhibition of human LOXIMVI cells assessed as growth inhibition at 10 uM by sulforhodamine B assay; settings: read-out: GI
[10] = test system: SF-268; test: Growth inhibition of human SF268 cells assessed as growth inhibition at 10 uM by sulforhodamine B assay; settings: read-out: GI
[11] = test system: CCRF-CEM; test: Growth inhibition of human CCRF-CEM cells assessed as growth inhibition at 10 uM by sulforhodamine B assay; settings: read-out: GI
[12] = test system: T47D; test: Growth inhibition of human T47D cells assessed as cell growth at 10 uM by sulforhodamine B assay; settings: read-out: Activity
[13] = test system: BT-549; test: Growth inhibition of human BT549 cells assessed as cell growth at 10 uM by sulforhodamine B assay; settings: read-out: Activity
[14] = test system: MCF7; test: Growth inhibition of human MCF7 cells assessed as cell growth at 10 uM by sulforhodamine B assay; settings: read-out: Activity
[15] = test system: RXF 393; test: Growth inhibition of human RXF393 cells assessed as cell growth at 10 uM by sulforhodamine B assay; settings: read-out: Activity
[16] = test system: A498; test: Growth inhibition of human A498 cells assessed as cell growth at 10 uM by sulforhodamine B assay; settings: read-out: Activity
[17] = test system: LOX IMVI; test: Growth inhibition of human LOXIMVI cells assessed as cell growth at 10 uM by sulforhodamine B assay; settings: read-out: Activity
[18] = test system: HCT-116; test: Growth inhibition of human HCT116 cells assessed as cell growth at 10 uM by sulforhodamine B assay; settings: read-out: Activity
[19] = test system: NCI-H460; test: Growth inhibition of human NCI-H460 cells assessed as cell growth at 10 uM by sulforhodamine B assay; settings: read-out: Activity
[20] = test system: NCI-H226; test: Growth inhibition of human NCI-H226 cells assessed as cell growth at 10 uM by sulforhodamine B assay; settings: read-out: Activity
[21] = test system: SR; test: Growth inhibition of human SR cells assessed as cell growth at 10 uM by sulforhodamine B assay; settings: read-out: Activity
[22] = test system: SW-620; test: Growth inhibition of human SW620 cells by sulforhodamine B assay
[23] = Growth inhibition of human HCC2998 cells by sulforhodamine B assay
[24] = test system: A549; test: Growth inhibition of human A549/ATCC cells by sulforhodamine B assay
[25] = test system: SK-MEL-28; test: Growth inhibition of human SK-MEL-28 cells assessed as cell growth at 10^-8 M by sulforhodamine B assay; settings: read-out: Activity
[26] = test system: SF-539; test: Growth inhibition of human SF539 cells assessed as cell growth at 10^-8 M by sulforhodamine B assay; settings: read-out: Activity
[27] = test system: HOP-92; test: Growth inhibition of human HOP92 cells assessed as cell growth at 10^-8 M by sulforhodamine B assay; settings: read-out: Activity
[28] = test system: HOP-62; test: Growth inhibition of human HOP62 cells assessed as cell growth at 10^-8 M by sulforhodamine B assay; settings: read-out: Activity
[29] = test system: OVCAR-3; test: Growth inhibition of human OVCAR3 cells by sulforhodamine B assay
[30] = test system: UACC-62; test: Growth inhibition of human UACC62 cells by sulforhodamine B assay
[31] = test system: SF-539; test: Growth inhibition of human SF539 cells by sulforhodamine B assay
[32] = test system: IGROV-1; test: Growth inhibition of human IGROV1 cells assessed as cell growth at 10^-4 M by sulforhodamine B assay; settings: read-out: Activity
[33] = test system: T47D; test: Growth inhibition of human T47D cells assessed as cell growth at 10^-6 M by sulforhodamine B assay; settings: read-out: Activity
[34] = test system: DU-145; test: Growth inhibition of human DU145 cells assessed as cell growth at 10^-6 M by sulforhodamine B assay; settings: read-out: Activity
[35] = test system: 786-0; test: Growth inhibition of human 786-0 cells assessed as cell growth at 10^-6 M by sulforhodamine B assay; settings: read-out: Activity
[36] = test system: OVCAR-5; test: Growth inhibition of human OVCAR5 cells assessed as cell growth at 10^-6 M by sulforhodamine B assay; settings: read-out: Activity
[37] = test system: SW-620; test: Growth inhibition of human SW620 cells assessed as cell growth at 10^-6 M by sulforhodamine B assay; settings: read-out: Activity
[38] = test system: HT-29; test: Growth inhibition of human HT-29 cells assessed as cell growth at 10^-6 M by sulforhodamine B assay; settings: read-out: Activity
[39] = test system: NCI-H322M; test: Growth inhibition of human NCI-H322M cells assessed as cell growth at 10^-6 M by sulforhodamine B assay; settings: read-out: Activity
[40] = test system: T47D; test: Growth inhibition of human T47D cells assessed as cell growth at 10^-7 M by sulforhodamine B assay; settings: read-out: Activity
[41] = test system: RXF 393; test: Growth inhibition of human RXF393 cells assessed as cell growth at 10^-7 M by sulforhodamine B assay; settings: read-out: Activity
[42] = test system: BT-549; test: Growth inhibition of human BT549 cells assessed as cell growth at 10^-8 M by sulforhodamine B assay; settings: read-out: Activity
[43] = test system: A498; test: Growth inhibition of human A498 cells assessed as cell growth at 10^-8 M by sulforhodamine B assay; settings: read-out: Activity
[44] = read-out: LC50 (the source's name)
[45] = read-out: pLC50 (the source's name) (converted)

CC1(C)C[C@@H](O)[C@]2(C(=O)O)CC[C@]3(C)C(=CC[C@@H]4[C@@]5(C)CCC(=O)C(C)(C)[C@@H]5CC[C@]43C)[C@@H]2C1
inhibition of growth at 10 µM [1]: < 10% | inhibition of growth at 10 µM ([2]; read-out: GI): 13.9% | inhibition of growth at 10 µM [3]: 16.6% | inhibition of growth at 10 µM [4]: < 10% | inhibition of growth at 10 µM [5]: < 10% | inhibition of growth at 10 µM [6]: 19.2% | growth at 10 µM [7]: 87.5% | inhibition of growth at 10 µM [8]: < 10% | inhibition of growth at 10 µM [9]: < 10% | inhibition of growth at 10 µM [10]: < 10% | inhibition of growth at 10 µM [11]: 12.5% | growth at 10 µM [12]: 80.8% | growth at 10 µM [13]: 89.9% | growth at 10 µM [14]: 81.4% | growth at 10 µM [15]: 112% | growth at 10 µM [16]: 91.2% | growth at 10 µM [17]: 93.2% | growth at 10 µM [18]: 78.8% | growth at 10 µM [19]: 94.7% | growth at 10 µM [20]: 103% | growth at 10 µM [21]: 83.7%

C/C=C(/C)C(=O)O[C@@H]1CC(C)(C)C[C@H]2C3=CC[C@@H]4[C@@]5(C)CC[C@H](O)C(C)(C)[C@@H]5CC[C@@]4(C)[C@]3(C)CC[C@@]12C(=O)O [Reduced Lantadene A]
GI50 ([22]; read-out: GI50): 2.31 µM | CC50 [22, 44]: > 100 µM | TGI ([22]; read-out: TGI): 6.62 µM | GI50 ([22]; read-out: pGI50 (converted)): 2.29 µM | CC50 [22, 45]: > 100 µM | TGI ([22]; read-out: pTGI (converted)): 6.61 µM | GI50 ([23]; HCC 2998, read-out: GI50): 1.88 µM | CC50 ([23]; HCC 2998, read-out: LC50 (the source's name)): 6.43 µM | TGI ([23]; HCC 2998, read-out: TGI): 3.47 µM | GI50 ([23]; HCC 2998, read-out: pGI50 (converted)): 1.86 µM | CC50 ([23]; HCC 2998, read-out: pLC50 (the source's name) (converted)): 6.46 µM | TGI ([23]; HCC 2998, read-out: pTGI (converted)): 3.47 µM | GI50 ([24]; read-out: GI50): 1.19 µM | CC50 [24, 44]: 6.37 µM | TGI ([24]; read-out: TGI): 2.76 µM | GI50 ([24]; read-out: pGI50 (converted)): 1.2 µM | CC50 [24, 45]: 6.31 µM | TGI ([24]; read-out: pTGI (converted)): 2.75 µM | growth inhibition (GI) [2]: Active | inhibition of growth at 10 µM [3]: 94.2% | inhibition of growth at 10 µM [4]: 77.2% | inhibition of growth at 10 µM [5]: 91.9% | inhibition of growth at 10 µM [6]: 42.3% | growth at 10 µM [7]: 45.8% | inhibition of growth at 10 µM [8]: 71.3% | inhibition of growth at 10 µM [9]: 57.3% | inhibition of growth at 10 µM [10]: 74.1% | inhibition of growth at 10 µM [11]: 54.2% | growth at 10 µM [12]: 75.7% | growth at 10 µM [13]: 26.1% | growth at 10 µM [14]: 61% | growth at 10 µM [15]: 22.8% | growth at 10 µM [16]: -31.8% | growth at 10 µM [17]: 42.7% | growth at 10 µM [18]: 20% | growth at 10 µM [19]: 35.1% | growth at 10 µM [20]: 42.1% | growth at 10 µM [21]: 61.9% | growth at 0.01 µM [25]: 90% | growth at 0.01 µM [26]: 100% | growth at 0.01 µM [27]: 91% | growth at 0.01 µM [28]: 93% | GI50 ([29]; read-out: GI50): 1.95 µM | TGI ([29]; read-out: TGI): 3.61 µM | GI50 ([29]; read-out: pGI50 (converted)): 1.95 µM | TGI ([29]; read-out: pTGI (converted)): 3.63 µM | GI50 ([30]; read-out: GI50): 1.56 µM | CC50 [30, 44]: 7.83 µM | TGI ([30]; read-out: TGI): 3.5 µM | GI50 ([30]; read-out: pGI50 (converted)): 1.55 µM | CC50 [30, 45]: 7.76 µM | TGI ([30]; read-out: pTGI (converted)): 3.47 µM | GI50 ([31]; read-out: GI50): 3.37 µM | CC50 [31, 44]: 56.3 µM | TGI ([31]; read-out: TGI): 11.4 µM | GI50 ([31]; read-out: pGI50 (converted)): 3.39 µM | CC50 [31, 45]: 56.2 µM | TGI ([31]; read-out: pTGI (converted)): 11.5 µM | growth at 100 µM [32]: -58% | growth at 1 µM [33]: 96% | growth at 1 µM [34]: 109% | growth at 1 µM [35]: 97% | growth at 1 µM [36]: 113% | growth at 1 µM [37]: 90% | growth at 1 µM [38]: 105% | growth at 1 µM [39]: 93% | growth at 0.1 µM [40]: 104% | growth at 0.1 µM [41]: 95% | growth at 0.01 µM [42]: 99% | growth at 0.01 µM [43]: 79%
